The text below walks through data of patent US7632819B1, “Methods and compositions for inhibiting PKC delta cleavage for treatment and prevention of neurodegeneration and apoptosis” (Iowa State University Research Foundation, Inc., priority 2004, dated 2009).

Assay [1] has as its system N27 mesencephalic neuronal cells. The experiment in a line: MTT cytotoxicity assay, MPP+- and 6-OHDA-induced cytotoxicity. Conditions: N27 cells, 100 μM 6-OHDA 24 hr, inhibitor 50 μM. The source says: (§1) Chemicals. Protease cocktail, ATP, protein-A-sepharose, protein-G-sepharose and anti-â-actin antibody were obtained from Sigma-Aldrich (St. Louis, Mo.); mouse tyrosine hydroxylase antibody was purchased from Chemicon (Temecula, Calif.); the rabbit polyclonal antibody for tyrosine hydroxylase was obtained from Calbiochem Bioscience, Inc. (King of Prussia, Pa.); rabbit PKCδ antibody was purchased from Santa Cruz Biotechnology, Inc. (Santa Cruz, Calif.); anti-rabbit and anti-mouse secondary antibodies and the ECL chemiluminescence kit were purchased from Amersham Pharmacia Biotech. (Piscataway, N.J.). Alexa 488 conjugated antirabbit/mouse, Cy3 conjugated anti-rabbit/mouse antibody and Hoechst 33342 were purchased from Molecular Probes, Inc. (Eugene, Oreg.). [ã-32P]ATP was purchased from Perkin Elmer Life Science Products (Boston, Mass.). The Bradford protein assay kit was purchased from Bio-Rad Laboratories (Hercules, Calif.). RPMI, fetal bovine serum, -glutamine, penicillin, and streptomycin were purchased from Invitrogen (Gaithersburg, Md.). Quantity One 4.2.0 software was purchased from Bio-Rad. Design and synthesis of z-DIPD-fmk (SEQ ID NO:5). To develop a cell permeable peptide inhibitor to specifically block PKCδ cleavage, we designed the tetrapeptide Asp-Ile-Pro-Asp (DIPD) (SEQ ID NO:5) corresponding to position 324-327 in rat PKCδ cDNA representing the caspase-3 cleavage site. Since this peptide is directed against the caspase-3 cleavage site of PKCδ, it should prevent the proteolytic cleavage and activation of PKCδ mediated by caspase-3. The custom synthesis of the tetrapeptide Z-Asp(OMe)-Ile-Pro-Asp(OMe)-FMK (SEQ ID NO:5) was performed at MP Biomedicals (Irvine, Calif.), a quality company that specializes in developing cell permeable peptide inhibitors directed against apoptosis cell signaling molecules. […]
For orientation: Tetrazolium dyes change colour on reduction, which living cells bring about.

For assay [2], the system named is primary mesencephalic dopaminergic neuronal cells. Description: TH immunostaining, TH+ cell count and neuronal process length in primary mesencephalic cultures. The format is cell-based, mouse. The source says: (§2) Chemicals. Protease cocktail, ATP, protein-A-sepharose, protein-G-sepharose and anti-â-actin antibody were obtained from Sigma-Aldrich (St. Louis, Mo.); mouse tyrosine hydroxylase antibody was purchased from Chemicon (Temecula, Calif.); the rabbit polyclonal antibody for tyrosine hydroxylase was obtained from Calbiochem Bioscience, Inc. (King of Prussia, Pa.); rabbit PKCδ antibody was purchased from Santa Cruz Biotechnology, Inc. (Santa Cruz, Calif.); anti-rabbit and anti-mouse secondary antibodies and the ECL chemiluminescence kit were purchased from Amersham Pharmacia Biotech. (Piscataway, N.J.). Alexa 488 conjugated antirabbit/mouse, Cy3 conjugated anti-rabbit/mouse antibody and Hoechst 33342 were purchased from Molecular Probes, Inc. (Eugene, Oreg.). [ã-32P]ATP was purchased from Perkin Elmer Life Science Products (Boston, Mass.). The Bradford protein assay kit was purchased from Bio-Rad Laboratories (Hercules, Calif.). RPMI, fetal bovine serum, -glutamine, penicillin, and streptomycin were purchased from Invitrogen (Gaithersburg, Md.). Quantity One 4.2.0 software was purchased from Bio-Rad. Design and synthesis of z-DIPD-fmk (SEQ ID NO:5). To develop a cell permeable peptide inhibitor to specifically block PKCδ cleavage, we designed the tetrapeptide Asp-Ile-Pro-Asp (DIPD) (SEQ ID NO:5) corresponding to position 324-327 in rat PKCδ cDNA representing the caspase-3 cleavage site. Since this peptide is directed against the caspase-3 cleavage site of PKCδ, it should prevent the proteolytic cleavage and activation of PKCδ mediated by caspase-3. The custom synthesis of the tetrapeptide Z-Asp(OMe)-Ile-Pro-Asp(OMe)-FMK (SEQ ID NO:5) was performed at MP Biomedicals (Irvine, Calif.), a quality company that specializes in developing cell permeable peptide inhibitors directed against apoptosis cell signaling molecules. Briefly, the synthesis was performed with the reaction of Boc-D(OMe)-OH with MBFM (Magnesium benzyl fluoromalonate) to produce Beta-Keto fluoroester, followed by hydrogenation with Pd/c to produce Boc-D(OMe)FK, which was converted into Tfa salt using trifluoroacetic acid. Coupling of Tfa salt with Z-D(OMe)—I—P—OH in DMF with HOBT, HBTU DIEA and workup produced a crude product which was purified by column chromatography over silica gel. Elution with EtOAC:MeOH 95:5 gave pure fractions which were mixed and dried. Crystallization with EtOAC/Hexane, filtration and drying produced the pure product. Animals. Time-pregnant C57/bL mice were housed under standard conditions: constant temperature (22±1° C.), humidity (relative, 30%) and a 12-h light/dark cycle with free access to food and water. The animals and protocol procedures were approved and supervised by the Committee on Animal Care (COAC) at Iowa State University. Cell culture. Rat mesencephalic dopaminergic neuronal (N27) cells were cultured as described earlier (Anantharam et al., 2002). Briefly, cells were grown in RPMI 1640 medium containing 10% fetal bovine serum, 2 mM L-glutamine, 50 units of penicillin, and 50 μg/ml streptomycin. Cells were maintained in a humidified atmosphere of 5% CO2 at 37° C. Primary mesencephalic neuronal cultures were prepared from the ventral mesencephalon of gestational 18-day-old mice embryos as described previously (Yang et al., 2004). Mesencephalic tissues were dissected and maintained in ice-cold Ca2+-free HBSS and then dissociated in HBSS solution containing trypsin-EDTA (0.25%) for 20 min at 37° C. The dissociated cells were then plated at equal density (0.5×10^6 cells) in 30-mm-diameter tissue culture wells pre-coated with poly-lysine (1 mg/ml). Cultures were maintained in a chemically defined, serum-free medium consisting of neurobasal medium fortified with B-27 supplements, L-glutamine (500 μM), penicillin (100 IU/ml), and streptomycin (100 μg/ml) (Life Technologies). The cells were maintained in a humidified CO2 incubator (5% CO2, 37° C.) for 24 hr and then treated with cytosine arabinoside (10 μM) for 24 hr to inhibit glial cell proliferation. […]

In a further assay the test system is PKCδ. Description: Western blot of PKCδ proteolytic cleavage in N27 cells. The format is cell-based, rat.
Text: as §1

Another assay deals with T1, caspase-3 (Rattus norvegicus, UniProt P55213).
T1 construct: N27 cells were exposed to either MPP^+ or 6-OHDA in the absence or presence of z-DIPD-fmk; endogenous in cells; host or cells: N27 rat mesencephalic dopaminergic neuronal cells
T1 sequence (P55213 29-175 limits assumed): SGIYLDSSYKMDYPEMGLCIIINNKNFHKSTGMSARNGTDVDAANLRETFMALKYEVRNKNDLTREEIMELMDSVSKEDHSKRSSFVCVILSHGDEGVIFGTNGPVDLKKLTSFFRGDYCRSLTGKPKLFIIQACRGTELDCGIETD
T1 sequence (P55213 176-277 limits assumed): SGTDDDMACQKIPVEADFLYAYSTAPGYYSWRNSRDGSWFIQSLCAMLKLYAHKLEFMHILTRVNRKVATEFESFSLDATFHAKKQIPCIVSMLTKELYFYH
Description: Caspase-3 activity assay with fluorogenic substrate Ac-DEVD-AFC in treated N27 cells. It is filed as cell-based.
Text: as §2, with “C.” for “C. The dissociated cells were then plated at equal density (0.5×10^6 cells) in 30-mm-diameter tissue culture wells pre-coated with poly-lysine (1 mg/ml). Cultures were maintained in a chemically defined, serum-free medium consisting of neurobasal medium fortified with B-27 supplements, L-glutamine (500 μM), penicillin (100 IU/ml), and streptomycin (100 μg/ml) (Life Technologies). The cells were maintained in a humidified CO2 incubator (5% CO2, 37° C.) for 24 hr and then treated with cytosine arabinoside (10 μM) for 24 hr to inhibit glial cell proliferation.”

Where [3] appears, read: 10 μM MPP+ 24 hr, inhibitor 10 and 50 μM.

Where a SMILES comes first, the peptide text is derived from it. The star is where a group is joined. Cbz = O=C(OCc1ccccc1)*; CH2F = FC*

As for `CC[C@H](C)[C@H](NC(=O)[C@H](CC(=O)OC)NC(=O)OCc1ccccc1)C(=O)N1CCC[C@H]1C(=O)N[C@@H](CC(=O)OC)C(=O)CF` [z-DIPD-fmk, Z-Asp(OMe)-Ile-Pro-Asp(OMe)-FMK] (Cbz-D(OMe)IPD(OMe)-CH2F), the “protection against 6-OHDA-induced cell death (MTT)” value in assay [1] is given as “significantly protected”. In addition, in assay [2] (setting [3]), the “TH+ cell counts, protection against MPP+ neurotoxicity” value is “nearly complete protection” and the “average lengths of TH+ neuronal processes versus MPP+ only” value is on record as “significantly longer”. Besides, the “TH+ cell counts, protection against 6-OHDA neurotoxicity” value in assay [2] (30 μM 6-OHDA 24 hr, inhibitor 10 and 50 μM) was “nearly complete protection”. The “rescue of tyrosine hydroxylase positive neurons from MPP+- and 6-OHDA-induced toxicity” value in assay [2] (mouse primary mesencephalic cultures) is given as “completely rescued”. Further, the “effect on 6-OHDA-induced degeneration of TH+ neurons and their processes” value in assay [2] (primary nigral cultures, 30 μM 6-OHDA 24 hr, inhibitor 10 and 50 μM) is “significantly blocked”. The “effect on MPP+-induced degeneration of TH+ neurons and their processes” value in assay [2] (primary nigral dopaminergic neurons, 10 μM MPP+ 24 hr, inhibitor 10 and 50 μM) is on record as “significantly blocked”. Besides, in the assay on PKCδ (N27 cells, 100 μM 6-OHDA 24 hr, inhibitor 50 μM), the “effect on 6-OHDA-induced proteolytic cleavage of PKCδ” value is “significantly attenuated”. For the same molecule, in the assay with PKCδ (N27 cells, 300 μM MPP+ 36 hr, inhibitor 50 μM), the “effect on MPP+-induced proteolytic cleavage of PKCδ” value was “almost completely attenuated”. Besides, the “effect on PKCδ cleavage and proteolytic activation in PD models” value in the assay on PKCδ (concentration not given) is listed as “effectively blocked”. In addition, the “effect on 6-OHDA-induced caspase-3 activation” value on caspase-3 (100 μM 6-OHDA 24 hr, inhibitor 50 μM) is given as “completely blocked”. Besides, the “effect on MPP+-induced caspase-3 activation” value on caspase-3 (300 μM MPP+ 36 hr, inhibitor 50 μM) is “completely blocked”. The “effect on MPP+- and 6-OHDA-induced caspase-3 activation” value on caspase-3 (co-treatment, concentration not given) is “dose-dependently attenuated”.
